Structures are written as SMILES. Read-outs that look alike come from different tables or passages of the source. Where only a bound is given, the exact number is not on record here.

The target of assay [1] is MAGL (Homo sapiens (Human), UniProt Q99685). Nature of the assay: In vitro competitive activity-based protein profiling (gel-based, FP-Rh or HT-01 probe). It counts as biochemical. As to conditions: for IC50: read-out: MAGL Human PC3 (IC50). Here is the method:
In Vitro Competitive Activity-Based Protein Profiling.
Proteomes (human prefrontal cortex or cell membrane fractions) (50 μL, 1.0 mg/mL total protein concentration) were preincubated with varying concentrations of inhibitors at 37° C. After 30 min, FP-Rh or HT-01 (1.0 μL, 50 μM in DMSO) was added and the mixture was incubated for another 30 min at room temperature. Reactions were quenched with SDS loading buffer (15 μL—4×) and run on SDS-PAGE.

For assay [2], the target named is MAGL (Mus musculus (Mouse), UniProt O35678). As to the kind of experiment: In vitro competitive activity-based protein profiling, mouse brain proteome. In kind it is biochemical. As to conditions: 1 uM; mouse.
Where [3] appears, read: human PFC (prefrontal cortex), read-out: MAGL % Inhibition at 1 μM (human PFC).
Where [4] appears, read: human PC3, read-out: MAGL % Inhibition at 1 μM (human PC3).

Sequence of MAGL (Mus musculus (Mouse), UniProt O35678) (O35678 whole entry): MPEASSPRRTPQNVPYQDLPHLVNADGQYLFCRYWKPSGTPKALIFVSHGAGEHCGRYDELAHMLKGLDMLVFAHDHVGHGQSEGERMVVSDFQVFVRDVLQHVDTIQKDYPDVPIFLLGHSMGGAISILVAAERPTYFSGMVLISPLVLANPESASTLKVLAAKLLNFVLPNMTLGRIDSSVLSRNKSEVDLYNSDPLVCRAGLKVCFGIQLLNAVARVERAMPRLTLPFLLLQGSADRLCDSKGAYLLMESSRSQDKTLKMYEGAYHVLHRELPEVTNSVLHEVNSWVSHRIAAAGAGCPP
Sequence of MAGL (Homo sapiens (Human), UniProt Q99685) (Q99685 whole entry): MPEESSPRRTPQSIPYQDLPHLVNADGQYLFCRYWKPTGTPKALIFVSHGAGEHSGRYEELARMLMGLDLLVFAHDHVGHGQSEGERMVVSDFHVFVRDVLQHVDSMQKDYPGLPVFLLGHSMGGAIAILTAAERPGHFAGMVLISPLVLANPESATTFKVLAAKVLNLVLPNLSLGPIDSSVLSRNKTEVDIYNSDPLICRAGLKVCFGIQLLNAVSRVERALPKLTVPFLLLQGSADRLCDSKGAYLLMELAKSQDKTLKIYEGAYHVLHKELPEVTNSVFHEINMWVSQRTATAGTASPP

On to `Cc1c(Cl)c(C(=O)N2CCCC23CCN(C(=O)OC(C(F)(F)F)C(F)(F)F)CC3)nn1C` [Example 131, 1,1,1,3,3,3-Hexafluoropropan-2-yl 1-(4-chloro-1,5-dimethyl-1H-pyrazole-3-carbonyl)-1,8-diazaspiro[4.5] decane-8-carboxylate], for which the inhibition at 1 µM in assay [1] (setting [3]) and in assay [2] was above 75% in each case. Besides, the IC50 in assay [1] (human PC3) was below 100 nM.
As to `O=C(OC(C(F)(F)F)C(F)(F)F)N1CCC2(CCCN2Cc2cnc(N3CCN(C4CC4)CC3)s2)CC1` [Example 132, 1,1,1,3,3,3-Hexafluoropropan-2-yl 1-((2-(4-cyclopropylpiperazin-1-yl)thiazol-5-yl)methyl)-1,8-diazaspiro[4.5] decane-8-carboxylate], the inhibition at 1 µM in assay [1] (setting [3]) and in assay [2] was above 75% each time. For the same compound, in assay [1] (human PC3), the IC50 is below 100 nM.
Take `Cn1cc(Cl)c(CN2CCCC23CCN(C(=O)OC(C(F)(F)F)C(F)(F)F)CC3)n1` [Example 133, 1,1,1,3,3.3-Hexafluoropropan-2-yl 1-((4-chloro-1-methyl-1H-pyrazol-3-yl)methyl)-1,8-diazaspiro[4.5] decane-8-carboxylate]: the inhibition at 1 µM in assay [1] (setting [3]) and in assay [2] was above 75% each time. In addition, the IC50 in assay [1] (human PC3) was below 100 nM.
For `Cc1nc2ccccn2c1C(=O)N1CCCC12CCN(C(=O)OC(C(F)(F)F)C(F)(F)F)CC2` [Example 134, 1,1,1,3,3,3-Hexafluoropropan-2-yl 1-(2-methyl-imidazo[1,2-a]pyridine-3-carbonyl)-1,8-diazaspiro[4.5] decane-8-carboxylate], the inhibition at 1 µM in assay [1] (setting [3]) and in assay [2] was above 75% in each case. In addition, the half-inhibitory concentration (IC50) in assay [1] (human PC3) was below 100 nM.
For `CN1CCN(c2ncncc2C(=O)N2CCCC23CCN(C(=O)OC(C(F)(F)F)C(F)(F)F)CC3)CC1` [Example 136, 1,1,1,3,3,3-Hexafluoropropan-2-yl 1-(4-(4-methylpiperazin-1-yl)pyrimidine-5-carbonyl)-1,8-diazaspiro [4.5]decane-8-carboxylate], the figures for the inhibition at 1 µM in assay [1] (setting [3]) and in assay [2] were 25 to 75% and below 25%, respectively.
In the case of `COc1ncc(CN2CCCC23CCN(C(=O)OC(C(F)(F)F)C(F)(F)F)CC3)s1` [Example 138, 1,1,1,3,3,3-Hexafluoropropan-2-yl 1-((2-methoxythiazol-5-yl)methyl)-1,8-diazaspiro[4.5] decane-8-carboxylate], the inhibition at 1 µM in assay [1] (setting [3]) and in assay [2] was above 75% in each case. In assay [1] (human PC3), the concentration for half-maximal inhibition (IC50) was below 100 nM.
`O=C(OC(C(F)(F)F)C(F)(F)F)N1CCC2(CCCN2C(=O)c2c(C(F)(F)F)nc3n2CCCC3)CC1` [Example 139, 1,1,1,3,3,3-Hexafluoropropan-2-yl 1-(2-(trifluoromethyl)-5,6,7,8-tetrahydroimidazo [1,2-a]pyridine-3-carbonyl)-1,8-diazaspiro[4.5] decane-8-carboxylate]: the inhibition at 1 µM in assay [1] (setting [3]) and in assay [2] was above 75% in each case. Further, the IC50 in assay [1] (human PC3) was below 100 nM.
For the compound `O=C(OC(C(F)(F)F)C(F)(F)F)N1CCC2(CCCN2C(=O)c2cnn3ccc(Cl)nc23)CC1` [Example 145, 1,1,1,3,3,3-Hexafluoropropan-2-yl 1-(5-chloropyrazolo[1,5-a]pyrimidine-3-carbonyl)-1,8-diazaspiro[4.5] decane-8-carboxylate], the inhibition at 1 µM in assay [1] (setting [4]), in assay [1] (setting [3]) and in assay [2] was above 75% each time. Further, the IC50 in assay [1] (human PC3) is below 100 nM.
As for `O=C(OC(C(F)(F)F)C(F)(F)F)N1CCC2(CCCN2C(=O)c2cnn3ccccc23)CC1` [Example 146, 1,1,1,3,3,3-Hexafluoropropan-2-yl 1-(pyrazolo[1,5-a]pyridine-3-carbonyl)-1,8-diazaspiro[4.5] decane-8-carboxylate], the inhibition at 1 µM in assay [1] (setting [4]), in assay [1] (setting [3]) and in assay [2] was above 75% throughout.
For `O=C(OC(C(F)(F)F)C(F)(F)F)N1CCC2(CCCN2C(=O)c2cnn3c2NCCC3)CC1` [Example 147, 1.1,1,3,3,3-Hexafluoropropan-2-yl 1-(4,5,6,7-tetrahydropyrazolo [1,5-a]pyrimidine-3-carbonyl)-1,8-diazaspiro[4.5] decane-8-carboxylate], the inhibition at 1 µM in assay [1] (setting [4]), in assay [1] (setting [3]) and in assay [2] was above 75% throughout. In addition, in assay [1] (human PC3), the half-maximal inhibitory concentration (IC50) is below 100 nM.
For the compound `O=C(OC(C(F)(F)F)C(F)(F)F)N1CCC2(CCCN2C(=O)c2cnn3c2OCCC3)CC1` [Example 149, 1,1,1,3,3,3-Hexafluoropropan-2-yl 1-(6,7-dihydro-5H-pyrazolo[5,1-b] [1,3]oxazine-3-carbonyl)-1.8-diazaspiro[4.5] decane-8-carboxylate], the inhibition at 1 µM in assay [1] (setting [4]), in assay [1] (setting [3]) and in assay [2] was above 75% throughout. Besides, the half-maximal inhibitory concentration (IC50) in assay [1] (human PC3) was below 100 nM.
As for `O=C(OC(C(F)(F)F)C(F)(F)F)N1CCC2(CCCN2C(=O)c2cc3n(n2)CCN(CC2CC2)C3)CC1` [Example 156, 1,1,1,3,3,3-Hexafluoropropan-2-yl 1-(5-(cyclopropylmethyl)-4,5,6,7-tetrahydropyrazolo [1,5-a]pyrazine-2-carbonyl)-1,8-diazaspiro[4.5] decane-8-carboxylate], the inhibition at 1 µM in assay [1] (setting [4]), in assay [1] (setting [3]) and in assay [2] was above 75% in each case. The IC50 in assay [1] (human PC3) is below 100 nM.
For `O=C(OC(C(F)(F)F)C(F)(F)F)N1CCC2(CCCN2C(=O)c2nn3cccnc3c2Cl)CC1` [Example 157, 1,1,1,3,3,3-Hexafluoropropan-2-yl 1-(3-chloropyrazolo[1,5-a]pyrimidine-2-carbonyl)-1,8-diazaspiro[4.5] decane-8-carboxylate], the inhibition at 1 µM in assay [1] (setting [4]), in assay [1] (setting [3]) and in assay [2] was above 75% throughout.
As to `O=C(O)CN1CCn2cc(C(=O)N3CCCC34CCN(C(=O)OC(C(F)(F)F)C(F)(F)F)CC4)nc2C1` [Example 158, 2-(2-(8-(((1,1,1,3,3,3-Hexafluoropropan-2-yl)oxy)carbonyl)-1,8-diazaspiro[4.5]decane-1-carbonyl)-5,6-dihydroimidazo[1,2-a]pyrazin-7(8H)-yl) acetic acid], the inhibition at 1 µM in assay [1] (setting [4]) is above 75%; in assay [1] (setting [3]), above 75%; in assay [2], 25 to 75%.
With `O=C(OC(C(F)(F)F)C(F)(F)F)N1CCC2(CCCN2C(=O)c2cn3ccncc3n2)CC1` [Example 159, 1,1,1,3,3,3-Hexafluoropropan-2-yl 1-(imidazo[1,2-a]pyrazine-2-carbonyl)-1,8-diazaspiro[4.5] decane-8-carboxylate], the inhibition at 1 µM in assay [1] (setting [3]) and in assay [2] was above 75% in each case. The IC50 in assay [1] (human PC3) is below 100 nM.
For `O=C(OC(C(F)(F)F)C(F)(F)F)N1CCC2(CCCN2C(=O)c2cn3c(n2)CN(C2CCOCC2)CC3)CC1` [Example 162, 1,1,1,3,3,3-Hexafluoropropan-2-yl 1-(7-(tetrahydro-2H-pyran-4-yl)-5,6,7,8-tetrahydroimidazo [1,2-a]pyrazine-2-carbonyl)-1,8-diazaspiro[4.5] decane-8-carboxylate], the inhibition at 1 µM in assay [1] (setting [4]) and in assay [2] was above 75% throughout. In assay [1] (human PC3), the IC50 was below 100 nM.
For the compound `O=C(OC(C(F)(F)F)C(F)(F)F)N1CCC2(CCCN2C(=O)c2cn3nc(Cl)ccc3n2)CC1` [Example 163, 1,1,1,3,3,3-Hexafluoropropan-2-yl 1-(6-chloroimidazo[1,2-b]pyridazine-2-carbonyl)-1,8-diazaspiro[4.5] decane-8-carboxylate], the inhibition at 1 µM in assay [1] (setting [4]) and in assay [2] was above 75% throughout.
Take `O=C(OC(C(F)(F)F)C(F)(F)F)N1CCC2(CCCN2C(=O)c2cc3nccc(C(F)(F)F)n3n2)CC1` [Example 164, 1,1,1,3,3,3-Hexafluoropropan-2-yl 1-(7-(trifluoromethyl)pyrazolo[1,5-a]pyrimidine-2-carbonyl)-1,8-diazaspiro[4.5] decane-8-carboxylate]: the inhibition at 1 µM in assay [1] (setting [4]), in assay [1] (setting [3]) and in assay [2] was above 75% each time.
For `O=C(OC(C(F)(F)F)C(F)(F)F)N1CCC2(CCCN2C(=O)c2cc3nccc(C4CC4)n3n2)CC1` [Example 165, 1,1,1,3,3,3-Hexafluoropropan-2-yl 1-(7-cyclopropylpyrazolo [1,5-a]pyrimidine-2-carbonyl)-1,8-diazaspiro[4.5] decane-8-carboxylate], the inhibition at 1 µM in assay [1] (setting [4]), in assay [1] (setting [3]) and in assay [2] was above 75% in each case.
For `O=C(OC(C(F)(F)F)C(F)(F)F)N1CCC2(CCCN2C(=O)c2cc3nc(C(F)F)cc(C(F)F)n3n2)CC1` [Example 166, 1,1,1,3,3,3-Hexafluoropropan-2-yl 1-(5,7-bis(difluoromethyl)pyrazolo [1,5-a]pyrimidine-2-carbonyl)-1,8-diazaspiro [4.5]decane-8-carboxylate], the inhibition at 1 µM in assay [1] (setting [4]), in assay [1] (setting [3]) and in assay [2] was above 75% in each case.
With `O=C(OC(C(F)(F)F)C(F)(F)F)N1CCC2(CCCN2C(=O)c2cc3nc(C4CC4)cc(C(F)F)n3n2)CC1` [Example 167, 1.1,1,3,3,3-Hexafluoropropan-2-yl 1-(5-cyclopropyl-7-(difluoromethyl)pyrazolo[1,5-a]pyrimidine-2-carbonyl)-1,8-diazaspiro[4.5] decane-8-carboxylate], the inhibition at 1 µM in assay [1] (setting [4]), in assay [1] (setting [3]) and in assay [2] was above 75% throughout.

The record behind these values is patent US11142526B2, “Spirocycle compounds and methods of making and using same” (H. Lundbeck A/S, priority 2017, dated 2021).
